According to patent US10640506B2, “Cyclobutyl substituted pyrrolopyridine and pyrrolopyrimidines derivatives as JAK inhibitors” (Incyte Corporation, priority 2010, dated 2020):

Experiments:
[1] = target: T1, JAK2 (a.a. 828-1132) (Homo sapiens, UniProt O60674); test: In vitro JAK kinase assay (HTRF, phosphorylation of biotinylated peptide), JAK2; assay type: biochemical; conditions: Table F; 1 mM ATP
T1 construct: JAK2 (a.a. 828-1132); His tag (N)
How it was run: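 HTRF detection (Eu-Py20, SA-APC, 40 min) of biotinylated-peptide phosphorylation, following a 1 hour room-temperature reaction quenched with 45 mM EDTA. Enzymes: insect-cell-expressed N-terminal His-tagged JAK1 (837-1142) and JAK2 (828-1132) catalytic domains. Activities reported in ranged categories.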

[2] = target: human JAK1 (a.a. 837-1142) (Homo sapiens, UniProt P23458); test: In vitro JAK kinase assay (HTRF, phosphorylation of biotinylated peptide), JAK1; assay type: biochemical; conditions: Table F; 1 mM ATP
How it was run: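 Phosphorylation of a biotinylated peptide was run at room temperature for 1 hour using the N-terminally His-tagged JAK1 kinase domain (837-1142) from insect cells. After an EDTA stop, Eu-Py20 and SA-APC gave an HTRF read; values are binned potency ranges.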

T1 sequence (O60674 828-1132): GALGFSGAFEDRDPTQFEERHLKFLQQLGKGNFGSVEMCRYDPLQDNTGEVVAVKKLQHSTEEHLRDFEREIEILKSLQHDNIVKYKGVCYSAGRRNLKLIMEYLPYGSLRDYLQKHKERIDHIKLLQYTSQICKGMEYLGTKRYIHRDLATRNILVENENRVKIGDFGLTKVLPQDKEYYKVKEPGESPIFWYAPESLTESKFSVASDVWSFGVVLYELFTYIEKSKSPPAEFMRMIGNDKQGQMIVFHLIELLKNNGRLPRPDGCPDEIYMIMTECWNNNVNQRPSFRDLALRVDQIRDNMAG
Chain of human JAK1 (a.a. 837-1142) (P23458 849-1154): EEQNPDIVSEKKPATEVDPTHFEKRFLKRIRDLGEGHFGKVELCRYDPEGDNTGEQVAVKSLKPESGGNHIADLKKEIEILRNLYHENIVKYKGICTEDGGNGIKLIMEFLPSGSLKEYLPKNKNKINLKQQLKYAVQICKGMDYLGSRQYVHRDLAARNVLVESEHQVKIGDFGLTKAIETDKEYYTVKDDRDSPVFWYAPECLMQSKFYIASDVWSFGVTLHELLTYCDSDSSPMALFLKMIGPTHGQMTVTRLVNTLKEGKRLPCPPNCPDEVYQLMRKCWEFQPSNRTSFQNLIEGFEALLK

Question: For CCNCc1cc(C(=O)N2CCN([C@H]3C[C@](CC#N)(n4cc(-c5ncnc6[nH]ccc56)cn4)C3)CC2)nc(C(F)(F)F)n1 [Example 47, {trans-3-(4-{[6-[(Ethylamino)methyl]-2-(trifluoromethyl)pyrimidin-4-yl]carbonyl}piperazin-1-yl)-1-[4-(7H-pyrrolo[2,3-d]pyrimidin-4-yl)-1H-pyrazol-1-yl]cyclobutyl}acetonitrile], which IC50 [1] is on record?
Answer: 25 to 100 nM

Question: What about the IC50 [2] of the same molecule?
Answer: < 10 nM

Question: How did the IC50 [1] turn out when N#CC[C@]1(n2cc(-c3ncnc4[nH]ccc34)cn2)C[C@H](N2CCN(C(=O)c3cc(C(=O)O)nc(C(F)(F)F)n3)CC2)C1 [Example 48, 6-[(4-{trans-3-(cyanomethyl)-3-[4-(7H-pyrrolo[2,3-d]pyrimidin-4-yl)-1H-pyrazol-1-yl]cyclobutyl}piperazin-1-yl)carbonyl]-2-(trifluoromethyl)pyrimidine-4-carboxylic acid] was run?
Answer: > 100 nM

Question: What about the IC50 [2] of the same molecule?
Answer: 10 to 25 nM

Question: With N#CC[C@]1(n2cc(-c3ncnc4[nH]ccc34)cn2)C[C@H](N2CCN(C(=O)c3cc(CN4CCC4)nc(C(F)(F)F)n3)CC2)C1 [Example 49, {trans-3-(4-{[6-(azetidin-1-ylmethyl)-2-(trifluoromethyl)pyrimidin-4-yl]carbonyl}piperazin-1-yl)-1-[4-(7H-pyrrolo[2,3-d]pyrimidin-4-yl)-1H-pyrazol-1-yl]cyclobutyl}acetonitrile] as the molecule, how does the IC50 [1] read?
Answer: 25 to 100 nM

Question: What about the IC50 [2] of the same molecule?
Answer: < 10 nM

Question: For CNCc1cc(C(=O)N2CCN([C@H]3C[C@](CC#N)(n4cc(-c5ncnc6[nH]ccc56)cn4)C3)CC2)nc(C(F)(F)F)n1 [Example 50, {trans-3-(4-{[6-[(methylamino)methyl]-2-(trifluoromethyl)pyrimidin-4-yl]carbonyl}piperazin-1-yl)-1-[4-(7H-pyrrolo[2,3-d]pyrimidin-4-yl)-1H-pyrazol-1-yl]cyclobutyl}acetonitrile], which IC50 [1] is on record?
Answer: 25 to 100 nM

Question: And the IC50 [2]?
Answer: < 10 nM

Question: N#CC[C@]1(n2cc(-c3ncnc4[nH]ccc34)cn2)C[C@H](N2CCN(C(=O)c3cc(CO)nc(C(F)(F)F)n3)CC2)C1 [Example 51, {trans-3-(4-{[6-(hydroxymethyl)-2-(trifluoromethyl)pyrimidin-4-yl]carbonyl}piperazin-1-yl)-1-[4-(7H-pyrrolo[2,3-d]pyrimidin-4-yl)-1H-pyrazol-1-yl]cyclobutyl}acetonitrile] was tested. Which IC50 [1] did it give?
Answer: 25 to 100 nM

Question: And the IC50 [2]?
Answer: < 10 nM

Question: How did the IC50 [1] turn out when CN(C)Cc1cc(C(=O)N2CCN([C@H]3C[C@](CC#N)(n4cc(-c5ncnc6[nH]ccc56)cn4)C3)CC2)nc(C(F)(F)F)n1 [Example 52, {trans-3-(4-{[6-[(dimethylamino)methyl]-2-(trifluoromethyl)pyrimidin-4-yl]carbonyl}piperazin-1-yl)-1-[4-(7H-pyrrolo[2,3-d]pyrimidin-4-yl)-1H-pyrazol-1-yl]cyclobutyl}acetonitrile] was run?
Answer: 25 to 100 nM

Question: What about the IC50 [2] of the same molecule?
Answer: < 10 nM

Question: Which results are given for N#CC[C@]1(n2cc(-c3ncnc4[nH]ccc34)cn2)C[C@H](N2CCN(C(=O)c3cc(CN4CCCC4)nc(C(F)(F)F)n3)CC2)C1 [Example 53, {trans-3-(4-{[6-(pyrrolidin-1-ylmethyl)-2-(trifluoromethyl)pyrimidin-4-yl]carbonyl}piperazin-1-yl)-1-[4-(7H-pyrrolo[2,3-d]pyrimidin-4-yl)-1H-pyrazol-1-yl]cyclobutyl}acetonitrile]?
Answer: IC50 [1]: 25 to 100 nM; IC50 [2]: < 10 nM

Question: How did the IC50 [1] turn out when N#CC[C@]1(n2cc(-c3ncnc4[nH]ccc34)cn2)C[C@H](N2CCN(C(=O)c3cc(CN)nc(C(F)(F)F)n3)CC2)C1 [Example 54, {trans-3-(4-{[6-(aminomethyl)-2-(trifluoromethyl)pyrimidin-4-yl]carbonyl}piperazin-1-yl)-1-[4-(7H-pyrrolo[2,3-d]pyrimidin-4-yl)-1H-pyrazol-1-yl]cyclobutyl}acetonitrile] was run?
Answer: 25 to 100 nM

Question: What about the IC50 [2] of the same molecule?
Answer: < 10 nM

Question: CC(C)NCc1cc(C(=O)N2CCN([C@H]3C[C@](CC#N)(n4cc(-c5ncnc6[nH]ccc56)cn4)C3)CC2)nc(C(F)(F)F)n1 [Example 55, {trans-3-(4-{[6-[(isopropylamino)methyl]-2-(trifluoromethyl)pyrimidin-4-yl]carbonyl}piperazin-1-yl)-1-[4-(7H-pyrrolo[2,3-d]pyrimidin-4-yl)-1H-pyrazol-1-yl]cyclobutyl}acetonitrile] was tested. Which IC50 [1] did it give?
Answer: 25 to 100 nM

Question: And the IC50 [2]?
Answer: < 10 nM

Question: How did the IC50 [1] turn out when N#CC[C@]1(n2cc(-c3ncnc4[nH]ccc34)cn2)C[C@H](N2CCN(C(=O)c3cc(CNC4CCC4)nc(C(F)(F)F)n3)CC2)C1 [Example 56, {trans-3-(4-{[6-[(cyclobutylamino)methyl]-2-(trifluoromethyl)pyrimidin-4-yl]carbonyl}piperazin-1-yl)-1-[4-(7H-pyrrolo[2,3-d]pyrimidin-4-yl)-1H-pyrazol-1-yl]cyclobutyl}acetonitrile] was run?
Answer: 25 to 100 nM

Question: And the IC50 [2]?
Answer: < 10 nM

Question: Which results are given for CC(C)(C)NCc1cc(C(=O)N2CCN([C@H]3C[C@](CC#N)(n4cc(-c5ncnc6[nH]ccc56)cn4)C3)CC2)nc(C(F)(F)F)n1 [Example 57, {trans-3-(4-{[6-[(tert-butylamino)methyl]-2-(trifluoromethyl)pyrimidin-4-yl]carbonyl}piperazin-1-yl)-1-[4-(7H-pyrrolo[2,3-d]pyrimidin-4-yl)-1H-pyrazol-1-yl]cyclobutyl}acetonitrile]?
Answer: IC50 [1]: 10 to 25 nM; IC50 [2]: < 10 nM

Question: For CC(C)(O)c1cc(C(=O)N2CCN([C@H]3C[C@](CC#N)(n4cc(-c5ncnc6[nH]ccc56)cn4)C3)CC2)nc(C(F)(F)F)n1 [Example 58, {trans-3-(4-{[6-(1-hydroxy-1-methylethyl)-2-(trifluoromethyl)pyrimidin-4-yl]carbonyl}piperazin-1-yl)-1-[4-(7H-pyrrolo[2,3-d]pyrimidin-4-yl)-1H-pyrazol-1-yl]cyclobutyl}acetonitrile], which IC50 [1] is on record?
Answer: 10 to 25 nM

Question: And the IC50 [2]?
Answer: < 10 nM

Question: What does the source list for CC(C)(O)c1cc(C(=O)N2CCN([C@H]3C[C@@](CC#N)(n4cc(-c5ncnc6[nH]ccc56)cn4)C3)CC2)nc(C(F)(F)F)n1 [Example 59, {cis-3-(4-{[6-(1-hydroxy-1-methylethyl)-2-(trifluoromethyl)pyrimidin-4-yl]carbonyl}piperazin-1-yl)-1-[4-(7H-pyrrolo[2,3-d]pyrimidin-4-yl)-1H-pyrazol-1-yl]cyclobutyl}acetonitrile]?
Answer: IC50 [1]: 25 to 100 nM; IC50 [2]: < 10 nM

Question: For COCc1cc(C(=O)N2CCN([C@H]3C[C@](CC#N)(n4cc(-c5ncnc6[nH]ccc56)cn4)C3)CC2)nc(C(F)(F)F)n1 [Example 60, {trans-3-(4-{[6-(methoxymethyl)-2-(trifluoromethyl)pyrimidin-4-yl]carbonyl}piperazin-1-yl)-1-[4-(7H-pyrrolo[2,3-d]pyrimidin-4-yl)-1H-pyrazol-1-yl]cyclobutyl}acetonitrile], which IC50 [1] is on record?
Answer: 25 to 100 nM

Question: What about the IC50 [2] of the same molecule?
Answer: < 10 nM

Question: Which IC50 [1] does the source give for N#CC[C@]1(n2cc(-c3ncnc4[nH]ccc34)cn2)C[C@H](N2CCN(C(=O)c3cc(C4(N)CCC4)nc(C(F)(F)F)n3)CC2)C1 [Example 61, {trans-3-(4-{[6-(1-aminocyclobutyl)-2-(trifluoromethyl)pyrimidin-4-yl]carbonyl}piperazin-1-yl)-1-[4-(7H-pyrrolo[2,3-d]pyrimidin-4-yl)-1H-pyrazol-1-yl]cyclobutyl}acetonitrile] here?
Answer: < 10 nM

Question: What about the IC50 [2] of the same molecule?
Answer: < 10 nM
